Source: patent US9738604B2, “Ethynylbenzene derivatives” (Duke University, priority 2010, dated 2017)
≈ marks a conversion by molar mass, not a printed value. Read-outs that look alike come from different tables or passages of the source.

Tests used:
Format in all cases: cell-based
[1] = test system: E. coli W3110; test: microbe, parasite or virus in culture; conditions: for MIC: Escherichia coli, W3110, 22 h, read-out: MIC E. coli W3110
[2] = test system: P. aeruginosa (PAO1); test: MIC, P. aeruginosa; conditions: for MIC: Pseudomonas aeruginosa, read-out: MIC P. aeruginosa (PAO1)
[3] = test system: E. coli W3110RL; test: microbe, parasite or virus in culture; conditions: for MIC: Escherichia coli, W3110RL, 22 h, read-out: MIC E. coli W3110RL
[4] = test system: E. coli W3110PA; test: microbe, parasite or virus in culture; conditions: for MIC: Escherichia coli, W3110PA, 22 h, read-out: MIC E. coli W3110PA
[5] = test system: Acinetobacter Baumannii antibiotic susceptible strain (Sus. A.b. Isolate); test: Disk diffusion assay, antibiotic susceptible strain; set-up: key to diameter of the growth inhibition, Sus. A.b. Isolate: A: no detectable inhibition; B: 6-10 mm; C: 11-15 mm; D: ≧16; conditions: 2 μg of compound per disc, disc 6 mm in diameter; for zone of inhibition at 2 µg/disc: Acinetobacter baumannii, read-out: diameter of the growth inhibition, Sus. A.b. Isolate
[6] = test system: Acinetobacter Baumannii multidrug-resistant strain (MDR A.b. Isolate); test: Disk diffusion assay, multidrug-resistant strain; set-up: key to diameter of the growth inhibition, MDR A.b. Isolate: A: no detectable inhibition; B: 6-10 mm; C: 11-15 mm; D: ≧16; conditions: 2 μg of compound per disc, disc 6 mm in diameter
[7] = P. aeruginosa PAO1, 22 hours at 37° C., MTT

Compound | MIC [1] [µg/mL] | MIC ([2]; PAO1, 22 h) [µg/mL] | MIC [3] [µg/mL] | MIC [4] [µg/mL] | other results
C[C@@H](O)[C@H](NS(=O)(=O)c1ccc(C#CC#Cc2ccc(N)cc2)cc1)C(=O)NO [CPD-039, (2S,3R)-2-({4′-[4′-(4′-aminophenyl)buta-1′,3′-diyn-1′-yl]benzene}sulfonamido)-N,3-dihydroxybutanamide] |  |  |  |  | MIC E. coli W3110 [1]: B (key: A: <1 μg/mL; B: 1-10 μg/mL; C: 11-50 μg/mL; D: 51-100 μg/mL; E: >100 μg/mL); MIC P. aeruginosa (PAO1) [2, 7]: D (51-100 μg/mL); MIC E. coli W3110RL ([3]; E. coli with lpxC of R. leguminosarum, 22 hours at 37° C., MTT): E (>100 μg/mL); MIC E. coli W3110PA ([4]; E. coli with lpxC of P. aeruginosa, 22 hours at 37° C., MTT): D (51-100 μg/mL)
C[C@@H](O)[C@H](NC(=O)c1ccc(C#CC#Cc2ccc(N)cc2)cn1)C(=O)NO [CPD-041, (2S,3R)-2-({5-[4-(4-aminophenyl)buta-1,3-diyn-1-yl]pyridin-2-yl}formamido)-N,3-dihydroxybutanamide] | < 1 | 1 to 10 (≈ 2.64 to 26.4 µM) | 11 to 50 (≈ 29.1 to 132 µM) | 1 to 10 (≈ 2.64 to 26.4 µM) | 
CC(N)C(C(=O)NO)c1c[nH]c2cc(C#CC#Cc3ccc(N)cc3)ccc12 (stereo not shown) [CPD-042, 3-amino-2-{6′-[4′-(4′-aminophenyl)buta-1′,3′-diyn-1′-yl]-1′H-indol-3′-yl}-N-hydroxybutanamide] | 1 to 10 (≈ 2.69 to 26.9 µM) | 51 to 100 (≈ 137 to 269 µM) | 51 to 100 (≈ 137 to 269 µM) | 51 to 100 (≈ 137 to 269 µM) | 
Nc1ccc(C#CC#Cc2ccc(C(=O)NC3CCN(O)C3=O)cc2)cc1 (stereo not shown) [CPD-043, 4-((4-aminophenyl)buta-1,3-diynyl)-N-(1-hydroxy-2-oxopyrrolidin-3-yl)benzamide] | < 1 | 51 to 100 (≈ 142 to 278 µM) | 51 to 100 (≈ 142 to 278 µM) | 51 to 100 (≈ 142 to 278 µM) | 
Nc1ccc(C#CC#Cc2ccc(C(=O)N[C@@H]3CCN(O)C3=O)cc2)cc1 [CPD-044, (R)-4-((4-aminophenyl)buta-1,3-diynyl)-N-(1-hydroxy-2-oxopyrrolidin-3-yl)benzamide] | < 1 | 51 to 100 (≈ 142 to 278 µM) | 51 to 100 (≈ 142 to 278 µM) | 51 to 100 (≈ 142 to 278 µM) | 
C[C@@H](O)[C@H](NC(=O)c1ccc(C#CC#Cc2ccc(N)cc2)cc1)C(=O)NN [CPD-045, 4-((4-aminophenyl)buta-1,3-diynyl)-N-((2S,3R)-1-hydrazinyl-3-hydroxy-1-oxobutan-2-yl)benzamide] | 1 to 10 (≈ 2.66 to 26.6 µM) | 51 to 100 (≈ 135 to 266 µM) | 51 to 100 (≈ 135 to 266 µM) | 51 to 100 (≈ 135 to 266 µM) | 
C[C@@H](O)[C@H](NC(=O)c1ccc(C#CC#Cc2ccc(N)cc2)cc1)C(=O)O [CPD-046, (2S,3R)-2-(4-((4-aminophenyl)buta-1,3-diynyl)benzamido)-3-hydroxybutanoic acid] | 1 to 10 (≈ 2.76 to 27.6 µM) | 51 to 100 (≈ 141 to 276 µM) | 51 to 100 (≈ 141 to 276 µM) | 51 to 100 (≈ 141 to 276 µM) | 
C[C@@H](O)[C@H](NC(=O)c1ccc(C#CC#Cc2ccc(N)cc2)cc1)C(N)=O [CPD-047, N-((2S,3R)-1-amino-3-hydroxy-1-oxobutan-2-yl)-4-((4-aminophenyl)buta-1,3-diynyl)benzamide] | 1 to 10 (≈ 2.77 to 27.7 µM) | 51 to 100 (≈ 141 to 277 µM) | 51 to 100 (≈ 141 to 277 µM) | 51 to 100 (≈ 141 to 277 µM) | 
CC(C)[C@@]1(NC(=O)c2ccc(C#CC#Cc3ccc(N)cc3)cc2)CCN(O)C1=O [CPD-048, (S)-4-((4-aminophenyl)buta-1,3-diynyl)-N-(1-hydroxy-3-isopropyl-2-oxopyrrolidin-3-yl)benzamide] | 1 to 10 (≈ 2.49 to 24.9 µM) | 51 to 100 (≈ 127 to 249 µM) | 51 to 100 (≈ 127 to 249 µM) | 51 to 100 (≈ 127 to 249 µM) | 
Nc1ccc(C#CC#Cc2ccc(C(=O)N[C@H](C(=O)NO)[C@H](O)c3ccc(O)cc3)cc2)cc1 [CPD-049, 4-((4-aminophenyl)buta-1,3-diynyl)-N-((1R,2S)-1-hydroxy-3-(hydroxyamino)-1-(4-hydroxyphenyl)-3-oxopropan-2-yl)benzamide] | 1 to 10 (≈ 2.2 to 22 µM) | 11 to 50 (≈ 24.2 to 110 µM) | 51 to 100 (≈ 112 to 220 µM) | 51 to 100 (≈ 112 to 220 µM) | 
Nc1ccc(C#CC#Cc2ccc(C(=O)N[C@H](C(=O)NO)[C@@H](O)c3ccc(O)cc3)cc2)cc1 [CPD-050, 4-((4-aminophenyl)buta-1,3-diynyl)-N-((1S,2S)-1-hydroxy-3-(hydroxyamino)-1-(4-hydroxyphenyl)-3-oxopropan-2-yl)benzamide] | < 1 | 1 to 10 (≈ 2.2 to 22 µM) | 11 to 50 (≈ 24.2 to 110 µM) | < 1 | 
C[C@@](O)(c1ccc(O)cc1)C(NC(=O)c1ccc(C#CC#Cc2ccc(N)cc2)cc1)C(=O)NO (stereo partly drawn) [CPD-052, 4-((4-aminophenyl)buta-1,3-diynyl)-N-((3R)-3-hydroxy-1-(hydroxyamino)-3-(4-hydroxyphenyl)-1-oxobutan-2-yl)benzamide] | < 1 | 1 to 10 (≈ 2.13 to 21.3 µM) | 51 to 100 (≈ 109 to 213 µM) | 1 to 10 (≈ 2.13 to 21.3 µM) | 
C[C@H](O)[C@H](NC(=O)c1ccc(C#CC#Cc2ccc(N)cc2)cc1)C(=O)NO [CPD-053, (2S,3S)-2-{4′-[(4″-aminophenyl)buta-1′,3′-diynyl]benzamido}-1,3-dihydroxybutanamide] | < 1 | < 1 | 51 to 100 (≈ 135 to 265 µM) | < 1 | 
C[C@@H](O)[C@@H](NC(=O)c1ccc(C#CC#Cc2ccc(N)cc2)cc1)C(=O)NO [CPD-054, (2R,3R)-2-{4′-[(4″-aminophenyl)buta-1′,3′-diynyl]benzamido}-1,3-dihydroxybutanamide] | 1 to 10 (≈ 2.65 to 26.5 µM) | 11 to 50 (≈ 29.1 to 132 µM) | 51 to 100 (≈ 135 to 265 µM) | 11 to 50 (≈ 29.1 to 132 µM) | 
C[C@H](O)[C@@H](NC(=O)c1ccc(C#CC#Cc2ccc(N)cc2)cc1)C(=O)NO [CPD-055, (2R,3S)-2-{4′-[(4″-aminophenyl)buta-1′,3′-diynyl]benzamido}-1,3-dihydroxybutanamide] | 1 to 10 (≈ 2.65 to 26.5 µM) | 11 to 50 (≈ 29.1 to 132 µM) | 51 to 100 (≈ 135 to 265 µM) | 11 to 50 (≈ 29.1 to 132 µM) | 
Nc1ccc(C#CC#Cc2ccc(C(=O)N[C@H](C(=O)NO)[C@H](O)C(F)F)cc2)cc1 [CPD-056, 4-((4-aminophenyl)buta-1,3-diynyl)-N-((2S,3S)-4,4-difluoro-3-hydroxy-1-(hydroxyamino)-1-oxobutan-2-yl)benzamide] | < 1 | < 1 | 1 to 10 (≈ 2.42 to 24.2 µM) | < 1 | 
Nc1ccc(C#CC#Cc2ccc(C(=O)N[C@H](C(=O)NO)[C@H](O)C(F)(F)F)cc2)cc1 [CPD-057, 4-((4-aminophenyl)buta-1,3-diynyl)-N-((2S,3S)-4,4,4-trifluoro-3-hydroxy-1-(hydroxyamino)-1-oxobutan-2-yl)benzamide] | < 1 | < 1 | 51 to 100 (≈ 118 to 232 µM) | < 1 | 
C[C@@H](O)[C@H](NC(=O)c1ccc(C#CCOc2ccc(N)cc2)cc1)C(=O)NO [CPD-059, 4-(3-(4-aminophenoxy)prop-1-ynyl)-N-((2S,3R)-3-hydroxy-1-(hydroxyamino)-1-oxobutan-2-yl)benzamide] | 1 to 10 (≈ 2.61 to 26.1 µM) | 11 to 50 (≈ 28.7 to 130 µM) | 51 to 100 (≈ 133 to 261 µM) | 11 to 50 (≈ 28.7 to 130 µM) | 
Nc1ccc(OCC#Cc2ccc(C(=O)N[C@@H]3CCN(O)C3=O)cc2)cc1 [CPD-060, (R)-4-(3-(4-aminophenoxy)prop-1-ynyl)-N-(1-hydroxy-2-oxopyrrolidin-3-yl)benzamide] | 1 to 10 (≈ 2.74 to 27.4 µM) | 11 to 50 (≈ 30.1 to 137 µM) | 51 to 100 (≈ 140 to 274 µM) | 11 to 50 (≈ 30.1 to 137 µM) | 
C[C@@](O)(CF)[C@H](NC(=O)c1ccc(C#CC#Cc2ccc(N)cc2)cc1)C(=O)NO [CPD-061, 4-((4-aminophenyl)buta-1,3-diynyl)-N-((2S,3S)-4-fluoro-3-hydroxy-1-(hydroxyamino)-3-methyl-1-oxobutan-2-yl)benzamide] | < 1 | 1 to 10 (≈ 2.44 to 24.4 µM) | 51 to 100 (≈ 125 to 244 µM) | 1 to 10 (≈ 2.44 to 24.4 µM) | 
C[C@](O)(c1ccc(CO)cc1)[C@H](NC(=O)c1ccc(C#CC#Cc2ccc(N)cc2)cc1)C(=O)NO [CPD-062, 4-((4-aminophenyl)buta-1,3-diynyl)-N-((2S,3S)-3-hydroxy-1-(hydroxyamino)-3-(4-(hydroxymethyl)phenyl)-1-oxobutan-2-yl)benzamide] | < 1 | 1 to 10 (≈ 2.07 to 20.7 µM) | 51 to 100 (≈ 105 to 207 µM) | < 1 | 
CC1(C)S[C@@H]2[C@H](NC(=O)C(C(=O)O)c3ccccc3)C(=O)N2[C@H]1C(=O)O (stereo partly shown) [Carbenicillin] |  |  |  |  | diameter of the growth inhibition, Sus. A.b. Isolate [5]: A; diameter of the growth inhibition, MDR A.b. Isolate [6]: A
O=C(N[C@H](CO)[C@H](O)c1ccc([N+](=O)[O-])cc1)C(Cl)Cl [Chloramphenicol] |  |  |  |  | zone of inhibition at 2 µg/disc [5]: 6 to 10 mm; diameter of the growth inhibition, MDR A.b. Isolate [6]: A
O=C(O)c1cn(C2CC2)c2cc(N3CCNCC3)c(F)cc2c1=O [Ciprofloxacin] |  |  |  |  | zone of inhibition at 2 µg/disc [5]: ≥ 16 mm; diameter of the growth inhibition, MDR A.b. Isolate [6]: A
C[C@@H](O)[C@H]1C(=O)N2C(C(=O)O)=C(SCCN=CN)C[C@H]12 [Imipenem] |  |  |  |  | zone of inhibition at 2 µg/disc [5]: ≥ 16 mm; diameter of the growth inhibition, MDR A.b. Isolate [6]: A
CN(C)[C@@H]1C(O)=C(C(N)=O)C(=O)[C@@]2(O)C(O)=C3C(=O)c4c(O)cccc4[C@@](C)(O)[C@H]3C[C@@H]12 [Tetracycline] |  |  |  |  | zone of inhibition at 2 µg/disc [5]: 6 to 10 mm; diameter of the growth inhibition, MDR A.b. Isolate [6]: A
C[C@@H](O)[C@H](NC(=O)c1ccc(C#Cc2ccc(CN3CCOCC3)cc2)cc1)C(=O)NO [drawing 320] | < 1 |  | > 100 | < 1 | MIC [2, 7]: < 1 µg/mL
Polymyxin B |  |  |  |  | diameter of the growth inhibition, Sus. A.b. Isolate [5]: B (6-10 mm); diameter of the growth inhibition, MDR A.b. Isolate [6]: B (6-10 mm)
